Source: patent US20030232419A1, “Molecules interacting with CASL (MICAL) polynucleotides, polypeptides, and methods of using the same” (priority 2002, published 2003)

What was measured:
[1] = system: Sema3A-mediated axonal repulsion of NGF-dependent DRG axons; test: in vitro rat DRG growth cone repulsion assay using Sema 3A-secreting 293 cells; format: cell-based; settings: for attenuation of Sema 3A mediated axonal repulsion: inhibitors of other redox enzymes at concentrations previously shown to be effective in cell culture conditions
Experimental: FIG. 4A provides a schematic diagram of the rat D E14/15 Rat DRG explants were co-cultured with 293 cells expressing Sema 3A and grown for 48 hours in the presence of an inhibitor or vehicle. Axonal outgrowth was determined by measuring proximal (P) and distal (D) axon lengths.
DRG repulsion assays were performed as described (Messersmith et al., 1995).
(§1) Scoring was done by splitting explants into quadrants and scoring all growth cones as either collapsed or not-collapsed.

[2] = system: Sema3A-mediated growth cone collapse in NGF-dependent DRG neurons; test: DRG growth cone collapse assay with AP-Sema3A; format: cell-based, rat; settings: 25 mM EGCG, 3 hours in EGCG prior to 1 hour 1 nM AP-Sema3A
Source text: FIG. 4C provides a graph that quantitates the effects of oxidation/reduction enzyme inhibitors on Sema 3A repulsion scored as the ratio of the axon lengths on the proximal and distal sides of the explant (P/D ratio), and on Sema3A-mediated growth cone collapse indicated as % collapsed growth cones (gray). In repulsion assays, outgrowth of DRG axons on the side distal to the 293 cells appeared normal. […] For Rote, n=4, however only 4 out of 12 explants survived. (**=p<0.0001; *=p<0.001; paired t-test). Scale bar=[…].
as §1

[3] = target: p-hydroxybenzoate hydroxylase (pHBH) (Pseudomonas aeruginosa, UniProt P20586); settings: cited from earlier work
steroid 5a-reductase = settings: similar concentrations of EGCG; cited from earlier work
[4] = target: T1, NADPH-cytochrome P450 reductase (Homo sapiens, UniProt P16435); settings: similar concentrations of EGCG; cited from earlier work
T1 sequence (P16435 1-677): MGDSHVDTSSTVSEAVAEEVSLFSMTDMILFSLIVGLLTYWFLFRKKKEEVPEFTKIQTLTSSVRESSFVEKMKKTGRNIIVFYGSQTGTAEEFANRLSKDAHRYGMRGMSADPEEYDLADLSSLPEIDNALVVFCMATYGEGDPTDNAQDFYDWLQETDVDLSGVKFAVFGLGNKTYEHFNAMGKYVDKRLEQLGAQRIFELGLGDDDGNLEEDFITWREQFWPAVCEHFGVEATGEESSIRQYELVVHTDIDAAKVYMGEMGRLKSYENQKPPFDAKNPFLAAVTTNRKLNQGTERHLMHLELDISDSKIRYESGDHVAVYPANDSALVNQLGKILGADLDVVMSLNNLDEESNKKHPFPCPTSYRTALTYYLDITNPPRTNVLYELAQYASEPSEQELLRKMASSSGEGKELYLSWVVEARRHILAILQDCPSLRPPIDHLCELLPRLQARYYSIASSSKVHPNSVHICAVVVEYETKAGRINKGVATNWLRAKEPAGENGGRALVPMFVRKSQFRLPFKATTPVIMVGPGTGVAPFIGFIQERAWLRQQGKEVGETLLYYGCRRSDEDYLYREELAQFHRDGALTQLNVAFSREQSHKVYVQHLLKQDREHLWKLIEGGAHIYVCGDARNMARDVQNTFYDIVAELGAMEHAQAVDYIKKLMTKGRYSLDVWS

telomerase = telomerase (Homo sapiens, UniProt O14746); settings: similar concentrations of EGCG; cited from earlier work
[5] = target: matrix metalloproteinase MMP-9 (Homo sapiens, UniProt P14780); settings: similar concentrations of EGCG; cited from earlier work
phenol sulfotransferase = settings: similar concentrations of EGCG; cited from earlier work
[6] = target: T2, Drosophila MICAL (endogenous protein in embryo lysates) (Drosophila, UniProt Q86BA1 1-4723); test: co-immunoprecipitation from embryo lysates with MICAL-CT antibodies, Western blot
T2 construct: also called "large" MICAL isoform; long isoform

p-hydroxybenzoate hydroxylase (pHBH), sequence (P20586 whole entry): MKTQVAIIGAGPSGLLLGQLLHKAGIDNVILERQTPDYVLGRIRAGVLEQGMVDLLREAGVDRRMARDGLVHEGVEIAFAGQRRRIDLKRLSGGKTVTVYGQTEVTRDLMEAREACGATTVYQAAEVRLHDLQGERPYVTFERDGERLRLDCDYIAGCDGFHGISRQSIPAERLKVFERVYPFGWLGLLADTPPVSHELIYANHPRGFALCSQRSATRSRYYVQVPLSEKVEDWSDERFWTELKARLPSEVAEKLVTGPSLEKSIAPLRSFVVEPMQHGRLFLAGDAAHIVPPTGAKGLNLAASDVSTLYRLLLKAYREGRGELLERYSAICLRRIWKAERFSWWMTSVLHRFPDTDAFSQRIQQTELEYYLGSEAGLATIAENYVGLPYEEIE
telomerase, sequence (O14746 whole entry): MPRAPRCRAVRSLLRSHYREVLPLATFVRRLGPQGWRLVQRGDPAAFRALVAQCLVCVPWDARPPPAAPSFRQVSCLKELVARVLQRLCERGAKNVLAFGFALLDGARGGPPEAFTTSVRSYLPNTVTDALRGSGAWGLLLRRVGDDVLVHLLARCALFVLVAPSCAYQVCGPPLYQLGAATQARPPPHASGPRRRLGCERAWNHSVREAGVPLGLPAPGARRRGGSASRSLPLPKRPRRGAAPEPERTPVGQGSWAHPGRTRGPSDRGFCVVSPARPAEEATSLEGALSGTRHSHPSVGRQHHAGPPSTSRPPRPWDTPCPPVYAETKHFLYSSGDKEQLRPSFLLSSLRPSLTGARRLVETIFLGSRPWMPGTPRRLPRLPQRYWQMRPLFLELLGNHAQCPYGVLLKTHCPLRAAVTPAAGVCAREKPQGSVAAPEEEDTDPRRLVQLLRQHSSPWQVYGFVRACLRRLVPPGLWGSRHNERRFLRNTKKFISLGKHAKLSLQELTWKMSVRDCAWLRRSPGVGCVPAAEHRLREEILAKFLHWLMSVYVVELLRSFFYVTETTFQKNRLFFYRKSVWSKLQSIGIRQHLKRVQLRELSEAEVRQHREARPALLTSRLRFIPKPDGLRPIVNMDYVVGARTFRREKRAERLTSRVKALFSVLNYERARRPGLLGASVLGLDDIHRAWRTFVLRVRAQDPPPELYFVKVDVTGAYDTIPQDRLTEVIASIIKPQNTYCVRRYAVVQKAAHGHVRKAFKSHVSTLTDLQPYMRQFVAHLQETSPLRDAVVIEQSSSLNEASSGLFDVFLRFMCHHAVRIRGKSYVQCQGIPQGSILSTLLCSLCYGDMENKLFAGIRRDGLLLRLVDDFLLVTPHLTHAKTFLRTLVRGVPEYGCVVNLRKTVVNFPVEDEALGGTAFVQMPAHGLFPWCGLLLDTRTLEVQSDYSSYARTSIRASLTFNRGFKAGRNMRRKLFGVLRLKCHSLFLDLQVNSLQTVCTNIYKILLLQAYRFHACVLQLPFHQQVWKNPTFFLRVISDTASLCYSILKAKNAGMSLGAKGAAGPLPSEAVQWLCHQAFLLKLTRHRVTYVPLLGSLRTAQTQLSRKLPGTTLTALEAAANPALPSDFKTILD
matrix metalloproteinase MMP-9, sequence (P14780 94-707): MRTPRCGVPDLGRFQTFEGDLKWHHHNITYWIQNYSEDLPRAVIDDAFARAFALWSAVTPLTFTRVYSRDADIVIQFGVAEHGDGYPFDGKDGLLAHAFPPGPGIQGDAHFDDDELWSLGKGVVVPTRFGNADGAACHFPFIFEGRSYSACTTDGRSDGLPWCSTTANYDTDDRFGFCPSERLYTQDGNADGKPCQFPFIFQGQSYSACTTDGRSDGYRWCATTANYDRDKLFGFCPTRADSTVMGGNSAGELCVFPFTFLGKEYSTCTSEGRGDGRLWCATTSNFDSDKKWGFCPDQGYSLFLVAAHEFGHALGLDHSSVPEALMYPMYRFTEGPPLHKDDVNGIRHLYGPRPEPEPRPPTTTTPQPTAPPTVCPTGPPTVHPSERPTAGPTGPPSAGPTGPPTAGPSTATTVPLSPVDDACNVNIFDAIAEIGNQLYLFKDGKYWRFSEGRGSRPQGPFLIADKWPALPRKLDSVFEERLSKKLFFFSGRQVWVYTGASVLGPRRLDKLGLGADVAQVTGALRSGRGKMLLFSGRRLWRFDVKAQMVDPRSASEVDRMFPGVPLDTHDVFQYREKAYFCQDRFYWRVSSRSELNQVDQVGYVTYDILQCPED

Oc1ncnc2[nH]ncc12 [allopurinol]
attenuation of Sema 3A mediated axonal repulsion [1]: No attenuation

C=C(C)[C@H]1Cc2c(ccc3c2O[C@@H]2COc4cc(OC)c(OC)cc4[C@@H]2C3=O)O1 [rotenone]
attenuation of Sema 3A mediated axonal repulsion [1]: No attenuation | explants survived ([1]; repulsion assay, n=4): 4 out of 12

(−)-epigallocatechin gallate [EGCG]
Sema3A repulsion ([1]; 25 mM EGCG added to the growth media, E14/15 rat DRG explants co-cultured with Sema 3A 293 cells for 48 hours): completely neutralized | Sema3A-mediated growth cone collapse [2]: dramatically abrogates | inhibition of p-hydroxybenzoate hydroxylase (pHBH) [3]: potent and selective inhibitors | inhibition of steroid 5a-reductase (steroid 5a-reductase): inhibit | inhibition of NADPH-cytochrome P450 reductase [4]: inhibit | inhibition of telomerase (telomerase): inhibit | inhibition of MMP-9 [5]: inhibit | inhibition of phenol sulfotransferase (phenol sulfotransferase): inhibit

B1: Unc5, Drosophila (receptor, UniProt Q95TU8 31-1072, looked up)
chain: ELPQLDYGSLSASLEEDAIDPLTAMAPFANSLVTEESAQHKNNAELLGNSSEDENVRPQQGSSSSGLGSSGAAGGSGILLEEFNSGKLSPGEASNTLPIFLIEPESVFVVKNRPAVLKCKASHSLQVIFKCSGSSQPPPSTHETHVDPHTGVNMEEVTATIHRDLVDEFFGDGPFKCECHAWSSRGVVKSQAATVHIAYIRKSFNQSPTSLRLELGSRAELRCEPPGGFPEPKLTWHKNNAVITADSEPGITVSAGTLIFRQVALQHMANYSCSAENIAGRRVSDSAVLIVYVNGGWSTWSPWRECKCAGKPSQGRKRSRTCNNPMPLNGGAQCPGPQIQKSADCAACPEDTQIVSPDGFDISSSKRMARWSAWSDWSICSAECIQVRRRKCLTQGQTQISSEAEEAGDLLLGAPGVGMAALIAAAGVGAVGSPSEATGSSSDIIPGYGKSLCAGKDIQTAECRGEQCQIGKDDFDWTLYLGLAFITAVCFAFGTALICCARRGIRTNPHYNMARSVMDADYMPGVVEKKEMRMHIEASNMGYDYVNPGHRYLPGEHIMGMGIGCGGVTEHHYDVPNLSANYTNPIDHLSVDYLSETGESSTADTSNSTFDMNGKLSILNASKSSTYEMLGSAGGQLRLYGGELLLFVPEHAIGKHVKKHVSLLLLSDECSRVSCATESSILCSSVVHSAPRNYSFVKPVILKIPHCLVAPEQWHVHIYHADSEHDELSVNWRRAVSVGEETINTPMFVQLEATHVFIMTEQLGHFTVVAEPRIQQPSIKMKLLAFSQHTPPSNANCSLRIYVVKDFPNSRDICANVEAKLGGSFLGESQVFAFTLNSRNLNIRVRSADVEAAAPYEHAIPYQHILSNNSILHCEFSLRRQDQNSLCVDFGQGSEDDYYTFNIPAHSMSGSAEELASTTNTTISIDRQGNYVNESCVMDFVQLPHATKRLICGALDPPRADERDWRLLAKKLNTDRYIAYFATKASPTEQILNLWECRANSSPGSSSNSVSHTIMALLLTLKEMGRQDVLDIIVETIGPLWI
notes: Specificity control in the co-immunoprecipitation
binding result [6]: no binding
